Data set [1] deals with Phytophthora infestans. The class given is in vivo. The following applies: 300 g/Ha; 6 days after inoculation; tomato.
The test system of the next data set is lettuce plants. Put plainly: In vivo phytotoxic activity, foliar spray, lettuce. Also on record: key: +: indicating presence of a plant growth regulatory effect as compared to a control to which a solvent mixture (acetone/water/methanol) lacking the test compound was applied; 0: A zero indicates no apparent effect. The following applies: foliar spray 2200 g/Ha, seven days after application. The protocol:
(§1) The compounds of Examples 1 and 12 were tested in vivo for phytotoxic activity by applying the compounds to the foliage of cucumber, tomato, bean, lettuce and strawberry plants as a spray at a rate of 2200 g/Ha. The plants were evaluated seven days after spray application of the compounds.
(§2) Phototoxicity scores are set forth below in Table 6. The phytotoxicity scores use a symbol, "+", indicating presence of a plant growth regulatory effect as compared to a control to which a solvent mixture (acetone/water/methanol) lacking the test compound was applied. A zero indicates no apparent effect. Each score is a composite representing the mode value for three replicate plants.

A further data set concerns Phytophthora capsici. The experiment in a line: microbe, parasite or virus in culture. The data set is classed as cell-based. The following applies: 72 h, 3 days at room temperature, read-out: PHY percent inhibition of fungal growth.
Data set [2] relates to Pythium ultimum. The experiment in a line: microbe, parasite or virus in culture. The class given is cell-based. The following applies: Globisporangium ultimum, 72 h, 3 days at room temperature, read-out: PYU percent inhibition of fungal growth.
The test system of data set [3] is Colletotrichum lagenarium. Put plainly: microbe, parasite or virus in culture. The following applies: Colletotrichum orbiculare, 72 h, 3 days at room temperature, read-out: COL percent inhibition of fungal growth. The class given is cell-based.
The subject of another data set is Fusarium roseum. Put plainly: microbe, parasite or virus in culture. The class given is cell-based. To be noted: Fusarium sambucinum, 72 h, read-out: FUS percent inhibition of fungal growth.
Data set [4] deals with Phytophthora infestans. The data set is classed as in vivo. To be noted: 300 g/Ha; applied two days after inoculation (curative); tomato.
A further data set relates to Plasmopara viticola. The experiment in a line: Downy Mildew of Grapes (GDM). The class given is in vivo. To be noted: 300 g/Ha; 7-8 days; grape.
A further data set concerns Rhizoctonia solani. The experiment in a line: microbe, parasite or virus in culture. The class given is cell-based. The following applies: 72 h, 3 days at room temperature, read-out: RHI percent inhibition of fungal growth.
In the next data set the test system is Venturia inaequalis. The experiment in a line: Fungitoxicity assay against Venturia inaequalis (in vitro, microtiter MIC). The class given is cell-based. To be noted: 168 h, minimum inhibitory concentration, 7 days at 25° C. The protocol: The compounds of Examples 1-20 were tested in vitro for fungicidal activity and phytotoxicity. A. The compounds were tested in vitro for fungicidal activity against Pythium ultimum, Botrytis cinerea and Venturia inaequalis. Fungitoxicity assay against Venturia inaequalis: Test compounds were dissolved in dimethylsulfoxide at 1 milligram per milliliter (mg/ml), and 50 ul added to 950 ul of yeast extract-dextrose medium (YED, 0.4% yeast extract, 2% dextrose) to give 50 part per million (ppm) solutions. Minimum inhibitory concentration (MIC) values were determined using a microtiter assay with twofold serial dilutions of the prepared 50 ppm solutions (100 ul) in YED medium. Inoculum consisted of a spore suspension of V. inaequalis in YED medium at 2.5×10^5 spores per ml. […] Results of the testing for fungicidal activity against the above named fungi are set forth below in Table 3 as Pythium EC50 (ppm), Botrytis EC50 (ppm) and Venturia MIC (ppm), respectively.

In data set [5] the test system is Pythium ultimum. Put plainly: Fungitoxicity assay against Pythium ultimum (in vitro, mycelial dry weight). The class given is cell-based. To be noted: Globisporangium ultimum, 48 hours at 25° C., read-out: Pythium EC50. The protocol: The compounds of Examples 1-20 were tested in vitro for fungicidal activity and phytotoxicity. A. The compounds were tested in vitro for fungicidal activity against Pythium ultimum, Botrytis cinerea and Venturia inaequalis. Fungitoxicity assay against Pythium ultimum: A dilution series of test compound was prepared in dimethylsulfoxide, and 0.1 milliliter (ml) of each dilution was added to 19.9 ml of a liquid asparagine-sucrose broth ([…]. and Katznelson, K., 1971, Can. J. […] Each plate was inoculated with a mycelial plug, 7 millimeters (mm) in diameter, taken from the growing edge of a culture of Pythium ultimum grown on potato dextrose agar. Two replicate plates were used for each treatment. The increase in mycelial dry weight was determined after growth for 48 hours at 25° C. with shaking on a gyrotary shaker at 60 revolutions per minute (rpm). EC50 values were calculated from dose response curves. As used herein, the terminology "EC50" means the concentration of test compound required to inhibit growth by 50% as compared to a control lacking the test compound. Results of the testing for fungicidal activity against the above named fungi are set forth below in Table 3 as Pythium EC50 (ppm), Botrytis EC50 (ppm) and Venturia MIC (ppm), respectively.

The subject of data set [6] is Piricularia oryzae. The class given is in vivo. To be noted: 300 g/Ha; seven to eight days after inoculation; Nato rice.
The next data set relates to Cercospora arachidicola. The experiment in a line: Peanut Cercospora (PC). The following applies: in vivo.
A further data set relates to cucumber plants. Put plainly: In vivo phytotoxic activity, foliar spray, cucumber. On the set-up: key: +: indicating presence of a plant growth regulatory effect as compared to a control to which a solvent mixture (acetone/water/methanol) lacking the test compound was applied; 0: A zero indicates no apparent effect. The following applies: foliar spray 2200 g/Ha, seven days after application. The protocol: as §1, §2

The test system of a further data set is Cercospora beticola. Put plainly: microbe, parasite or virus in culture. The class given is cell-based. To be noted: 72 h, 3 days at room temperature, read-out: CER percent inhibition of fungal growth.
In data set [7] the test system is Botrytis cinerea. Put plainly: Botrytis Gray Mold on Tomato (BOT). The data set is classed as in vivo. The following applies: 300 g/Ha, 5-7 days.
Data set [8] concerns Pseudocercosporella herpotrichoides. The experiment in a line: microbe, parasite or virus in culture. The data set is classed as cell-based. The following applies: Oculimacula yallundae, 72 h, 3 days at room temperature, read-out: PSH percent inhibition of fungal growth.
Data set [9] has as its system Pseudoperonospora cubensis. Put plainly: Cucumber Downy Mildew (CDM). The following applies: in vivo.
Data set [10] deals with Piricularia oryzae. The experiment in a line: organism not typed. The class given is cell-based. To be noted: 72 h, read-out: PIR percent inhibition of fungal growth.
The subject of data set [11] is Botrytis cinerea. Put plainly: microbe, parasite or virus in culture. The class given is cell-based. The following applies: 72 h, 3 days at room temperature, read-out: BOC percent inhibition of fungal growth.
A further data set concerns strawberry plants. Put plainly: In vivo phytotoxic activity, foliar spray, strawberry. To be noted: foliar spray 2200 g/Ha, seven days after application. Also on record: key: +: indicating presence of a plant growth regulatory effect as compared to a control to which a solvent mixture (acetone/water/methanol) lacking the test compound was applied; 0: A zero indicates no apparent effect. The protocol:
as §1, §2

Values after ≈ are worked out from the molar mass of the structure shown.

Take `CCC(C)(NC(=O)c1cc(C)cc(C=NOC)c1)C(=O)CCl` (stereo not drawn) [Example 12, N-[3'-(1'-chloro-3'-methyl-2'-oxopentan)]-3-methoxyiminomethyl-5-methylbenzamide]: the “TLB percent disease control” value in the data set with Phytophthora infestans [1] is 100%. Further, the “phytotoxicity score, Lettuce” value in the data set with lettuce plants came to 0. Also, the inhibition at 25 ppm with Phytophthora capsici was found to be 100%; in the data set on Pythium ultimum [2], 100%; in [3], 100%; in the data set on Fusarium roseum it was 0%; in the data set on Rhizoctonia solani, 0%; in the data set on Cercospora beticola it was 100%. The inhibition at 25 ppm (in [8]; with Piricularia oryzae [10]; in the data set on Botrytis cinerea [11]) was 100% each time. For the same compound, the “TLC percent disease control” value in the data set with Phytophthora infestans [4] is recorded as 99%. In the data set with Plasmopara viticola, the “GDM percent disease control” value was determined as 100%. The compound further yielded a minimum inhibitory concentration (MIC) with Venturia inaequalis of 0.1 µg/mL (≈ 0.308 µM). Moreover, in the data set on Pythium ultimum [5], the IC50 was found to be 0.16 µg/mL (≈ 0.493 µM). The “RB percent disease control” value in the data set on Piricularia oryzae [6] was 75%. For the same compound, in the data set on Cercospora arachidicola, the “PC percent disease control” value was found to be 80%. Also, the “phytotoxicity score, Cucumber” value in the data set on cucumber plants was found to be 0. In addition, the “BOT percent disease control” value with Botrytis cinerea [7] is 100%. In addition, the “CDM percent disease control” value in [9] is reported as 99%. Besides, the “phytotoxicity score, Strawberry” value in the data set with strawberry plants was 0.

A word on the inhibition: it is the drop in the measured response relative to a control, in per cent. As a reminder, the MIC is the least concentration at which growth counts as inhibited.

(Values after patent US5254584A, “N-acetonylbenzamides and their use as fungicides” (Rohm and Haas Company, priority 1992, dated 1993).)
